The source of these data is patent US12180213B2, “Substituted pyrazoles showing serotonin 5-HT receptor activity” (Sumitomo Pharma Co., Ltd., priority 2018, dated 2024).

Like-named read-outs stand apart in the source and are kept apart here.

One may read the Ki as a measure of affinity in units of concentration, obtained from inhibition or displacement. The Emax is the maximal effect, on the per cent scale that the assay sets. For orientation: IC50 means the concentration needed to halve the response being measured. A word on the EC50: it is the concentration needed to bring the measured effect to its halfway point. A higher EC50 goes with lower potency in that assay.

In data set [1] the target is T1, human 5-HT1A receptor (Homo sapiens (Human), UniProt P08908). The data set can be described thus: Test 2: agonist activity for human 5-HT1A receptor ([35S]GTPγS binding). To be noted: for 5-HT1A agonist activity Emax / Emax at 10 µM: agonist activity in the presence of 10 μM of compound, relative to 100 μmol/L 5-HT. It is filed as biochemical. The method, then: Test 2: Evaluation of Agonist Activity for Human 5-HT1A Receptor
CHO cell membrane fraction in which human 5-HT1A receptor was expressed as used in Test 1 was purchased. To a buffer containing guanosine diphosphate were added a test compound dissolved in DMSO, each receptor membrane sample diluted with buffer, and [^35S] Guanosine 5′-O-[gamma-thio]triphosphate (GTPγS). The mixture was incubated at room temperature for 60 minutes. Then, the mixture was added quickly on a glassfiber filter plate (Multiscreen FB, Millipore, Inc.), and vacuum-filtered. Radioactivity remaining on the […] was measured with a liquid scintillation counter. Agonist activity was calculated from the following formula.
(In general: GTPγS is a poorly hydrolysed GTP analogue; its binding reports G protein activation.)

Data set [2] is described as follows: Test 4: metabolic stability test in human hepatic microsome. It is filed as in vitro ADME. Conditions: 0.1 mg/mL microsome, 0.1 μmol/L compound, 37° C., 30 minutes. The protocol: Test 4: Metabolic Stability Test in Human Hepatic Microsome
The stability of the present compound in human hepatic microsome metabolism was evaluated as mentioned below. Human hepatic microsome was obtained from Xenontech. Human hepatic microsome, NADPH, and each test compound were mixed in 25 mmol/L phosphate buffer solution (pH 7.4) to reach the following concentrations as shown below, and the mixture was incubated at 37° C. for 30 minutes. • Human hepatic microsome: 0.1 mg/mL • NAPDH: 3.2 mmol/L • Test compound: 0.1 μmol/L
The residual ratio of the test compound in each sample after 30 minutes was measured by LC-MS, and the metabolic stability in human hepatic microsome was calculated from the following formula. Metabolic stability in human hepatic microsome (mL/min/mg protein)=−LN(residual ratio)/30/0.1

Data set [3] addresses T1, human 5-HT1A receptor. The data set can be described thus: Test 1: binding activity for human 5-HT1A receptor ([3H]8-OH-DPAT). Conditions: CHO cell membrane fraction. The method, then: (§1) Test 1: Evaluation of binding activity for human 5-HT1A receptor, human 5-HT2A receptor, and human D2 receptor
(§2) Binding affinity of the present compound for human 5-HT1A receptor, human 5-HT2A receptor, and human D2 receptor was measured by the following procedures.
(§3) Each mixture was incubated at room temperature for 60 minutes. Then, the mixture was added quickly on a glassfiber filter plate (Multiscreen FB, Millipore, Inc.) coated with 0.3% aqueous polyethylenimine, and vacuum-filtered. Radioactivity remaining on the filter was measured with a liquid scintillation counter (PerkinElmer, Inc.). Binding inhibition rate was calculated from the following formula.
IC50 value was calculated by Hill analysis (Physiology, 1910, 40, 190-200). Ki of each compound was calculated from the following formula.
(§4) Binding inhibition constant (Ki)=IC50/(1+S/Kd) wherein S is concentration of ligand; Kd is a binding dissociation constant of ligand to membrane, which is calculated from a saturated binding experiment conducted with the same cell membrane. A small Ki value means strong binding ability to a receptor.

The target in data set [4] is human D2 receptor (Homo sapiens (Human), UniProt P14416). The data set is described as follows: Test 1: binding activity for human D2 receptor ([3H]Spiperone). To be noted: for Ki: [3H]Spiperone, CHO cell membrane fraction; for D2 Ki/5-HT1A Ki: ratio of D2 Ki to 5-HT1A Ki; for D2 Ki/5-HT2A Ki: ratio of D2 Ki to 5-HT2A Ki. The protocol:
as §1, §2, §3
(§5) Ki of each compound was calculated from the following formula.
as §4

Data set [5] has as its target T2, human 5-HT2A receptor (Homo sapiens (Human), UniProt P28223). The data set is described as follows: Test 1: binding activity for human 5-HT2A receptor ([3H]Ketanserin). To be noted: CHO cell membrane fraction. The method, then:
as §1, §2, §3, §5, §4

Data set [6] has as its target hERG channel (Homo sapiens (Human), UniProt Q12809). The data set can be described thus: Test 6-1: inhibitory activity for hERG channel (auto patch clamp, Qpatch). It counts as cell-based. To be noted: whole cell patch clamp, read-out: hERG inhibition IC50. The method, then: Test 6-1: Evaluation of Inhibitory Activity for hERG Channel
Inhibitory activity of the present compound for hERG channel was measured by whole cell patch clamp method with an auto patch clamp system using CHO cells in which hERG channel involved in human rapidly activating delayed rectifier potassium current (IKr) was forcibly expressed.
(Preparation of cell suspension)
hERG-CHO cells purchased from ChanTest Cop. were cultured in a CO2 incubator at 37° C., and dissociated from a flask with trypsin shortly before the measurement of hERG current, to prepare a cell suspension.
(Preparation of Solution)
Extracellular and intracellular fluid used in the measurement were prepared as follows.
Intracellular fluid: 5.4 mmol/L CaCl2, 1.8 mmol/L MgCl2, 10 mmol/L HEPES, 31 mmol/L KOH, 10 mmol/L EGTA, 120 mmol/L KCl, 4 mmol/L Na2-ATP
Test compound solution: Test compound was dissolved in DMSO to reach the concentration of 2 mmol/L or 20 mmol/L, in order to prepare a test compound solution. […] (Measurement of Current Value and Data Analysis)
The cell suspension, the extracellular fluid, the intracellular fluid, and the measurement plate were set in the auto patch clamp system, and hERG current was measured by whole cell patch clamp method. […] Each pulse interval was 15 seconds. The data analysis was carried out with Qpatch Assay Software (Biolin Scientific). The test was carried out by applying incrementally 4 concentrations of each test compound, and the average of the maximum peak tail currents which were obtained from the last 3 stimulations in each concentration was determined as the evaluated data.

In data set [7] the target is T2, human 5-HT2A receptor. The data set can be described thus: Test 3: antagonist activity for human 5-HT2A receptor (aequorin luminescence, CHO-K1 cells). It counts as cell-based. Conditions: against 1 nmol/L 5-HT. The method, then:
Test 3: Evaluation of Antagonist Activity for Human 5-HT2A Receptor
Aequorin, Gα16 protein, and each receptor were transiently expressed in CHO-K1 cells (Chinese hamster ovary). […] Antagonist activity was calculated from the following formula.
Antagonist activity (%)=100×{(Luminescence of well in the presence of 1 nmol/L 5-HT−Luminescence of well containing solvent)−(Luminescence of well in the presence of test compound and 1 nmol/L 5-HT−Luminescence of well containing solvent)}/(Luminescence of well in the presence of 1 nmol/L 5-HT−Luminescence of well containing solvent)

The mark [8] stands for this setting: human, CHO cells that express hERG.

T1 sequence (P08908 whole entry): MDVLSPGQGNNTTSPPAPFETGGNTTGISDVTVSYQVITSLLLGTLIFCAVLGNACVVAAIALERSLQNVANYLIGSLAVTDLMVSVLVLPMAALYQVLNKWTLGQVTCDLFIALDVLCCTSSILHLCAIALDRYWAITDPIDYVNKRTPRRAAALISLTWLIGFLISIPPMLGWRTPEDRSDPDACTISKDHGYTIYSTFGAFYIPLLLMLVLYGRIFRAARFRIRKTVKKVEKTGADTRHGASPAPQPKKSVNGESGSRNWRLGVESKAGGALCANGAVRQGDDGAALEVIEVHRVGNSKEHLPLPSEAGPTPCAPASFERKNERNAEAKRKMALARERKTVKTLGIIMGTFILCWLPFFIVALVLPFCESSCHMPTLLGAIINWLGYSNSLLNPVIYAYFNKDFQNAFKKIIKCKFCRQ
hERG channel, sequence (Q12809 whole entry): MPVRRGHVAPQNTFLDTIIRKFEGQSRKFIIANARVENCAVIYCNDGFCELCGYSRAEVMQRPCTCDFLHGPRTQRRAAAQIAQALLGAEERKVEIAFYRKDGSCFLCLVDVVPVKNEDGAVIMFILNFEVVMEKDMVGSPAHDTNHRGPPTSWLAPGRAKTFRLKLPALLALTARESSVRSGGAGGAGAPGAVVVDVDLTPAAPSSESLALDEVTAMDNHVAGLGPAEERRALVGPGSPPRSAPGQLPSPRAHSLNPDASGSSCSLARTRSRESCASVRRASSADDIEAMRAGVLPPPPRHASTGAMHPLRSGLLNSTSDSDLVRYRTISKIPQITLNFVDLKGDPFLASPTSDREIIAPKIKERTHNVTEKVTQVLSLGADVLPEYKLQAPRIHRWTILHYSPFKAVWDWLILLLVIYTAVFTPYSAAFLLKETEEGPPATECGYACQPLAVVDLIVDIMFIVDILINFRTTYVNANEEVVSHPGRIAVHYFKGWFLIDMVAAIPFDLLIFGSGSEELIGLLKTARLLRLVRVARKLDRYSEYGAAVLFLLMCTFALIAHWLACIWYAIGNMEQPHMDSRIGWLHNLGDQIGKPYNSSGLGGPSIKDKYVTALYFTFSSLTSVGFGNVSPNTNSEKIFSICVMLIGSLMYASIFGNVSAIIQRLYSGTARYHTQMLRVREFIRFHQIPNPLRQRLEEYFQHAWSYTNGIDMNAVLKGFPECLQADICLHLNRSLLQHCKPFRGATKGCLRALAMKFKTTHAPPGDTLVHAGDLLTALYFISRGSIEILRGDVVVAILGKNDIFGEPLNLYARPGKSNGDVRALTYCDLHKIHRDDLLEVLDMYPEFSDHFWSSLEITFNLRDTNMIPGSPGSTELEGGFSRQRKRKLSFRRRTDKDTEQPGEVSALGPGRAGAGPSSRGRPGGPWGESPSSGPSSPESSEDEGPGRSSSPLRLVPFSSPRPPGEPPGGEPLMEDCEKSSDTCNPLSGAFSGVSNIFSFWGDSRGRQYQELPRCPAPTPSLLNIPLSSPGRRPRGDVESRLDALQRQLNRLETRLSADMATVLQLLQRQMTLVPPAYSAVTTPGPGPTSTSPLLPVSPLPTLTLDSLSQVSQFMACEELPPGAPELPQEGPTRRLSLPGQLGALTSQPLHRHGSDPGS
human D2 receptor, sequence (P14416 whole entry): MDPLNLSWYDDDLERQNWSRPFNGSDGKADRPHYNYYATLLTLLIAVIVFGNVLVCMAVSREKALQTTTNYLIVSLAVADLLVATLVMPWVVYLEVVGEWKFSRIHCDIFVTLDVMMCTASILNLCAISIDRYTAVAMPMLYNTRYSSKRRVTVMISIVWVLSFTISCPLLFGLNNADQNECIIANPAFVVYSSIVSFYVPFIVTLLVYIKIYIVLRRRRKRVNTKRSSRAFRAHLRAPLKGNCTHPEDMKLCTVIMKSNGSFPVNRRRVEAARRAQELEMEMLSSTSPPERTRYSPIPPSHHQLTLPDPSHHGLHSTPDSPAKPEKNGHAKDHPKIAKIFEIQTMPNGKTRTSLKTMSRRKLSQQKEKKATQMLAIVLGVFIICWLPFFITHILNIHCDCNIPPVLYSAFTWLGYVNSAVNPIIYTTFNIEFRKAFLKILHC
T2 sequence (P28223 whole entry): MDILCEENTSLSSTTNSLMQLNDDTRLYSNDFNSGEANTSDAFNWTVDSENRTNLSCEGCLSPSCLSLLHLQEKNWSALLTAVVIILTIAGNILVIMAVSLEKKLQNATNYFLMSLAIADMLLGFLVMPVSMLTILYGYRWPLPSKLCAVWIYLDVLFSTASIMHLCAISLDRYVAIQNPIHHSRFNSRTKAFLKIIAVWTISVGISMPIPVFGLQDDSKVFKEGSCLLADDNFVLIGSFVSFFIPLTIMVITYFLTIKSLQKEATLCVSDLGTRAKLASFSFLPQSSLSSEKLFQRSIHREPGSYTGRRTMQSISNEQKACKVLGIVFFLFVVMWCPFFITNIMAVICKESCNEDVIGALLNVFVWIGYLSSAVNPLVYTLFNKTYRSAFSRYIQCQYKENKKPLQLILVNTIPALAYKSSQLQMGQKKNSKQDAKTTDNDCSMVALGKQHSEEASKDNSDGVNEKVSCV

On to `Cn1nc2c(c1Br)C(=O)N(CCN1CCN(c3nsc4ccccc34)CC1)CC2` [Example 73], for which the “5-HT1A agonist activity Emax” value in data set [1] is given as 62%.

On to `Cn1nc(Br)c2c1CCN(CCN1CCC(c3noc4ccccc34)CC1)C2=O` [Example 70], for which the “5-HT1A agonist activity Emax” value in data set [1] worked out at 50%.

`COc1ccc2c(n1)C(=O)N(CCN1CCN(c3noc4ccccc34)CC1)CC2` [Example 186]: in data set [2], the “Metabolic stability in human hepatic microsome” value (“Metabolic stability” below) was 0.095 mL/min/mg protein.

Take `Cc1nc2c(o1)CCN(CCN1CCN(c3noc4ccccc34)CC1)C2=O` [Example 39]: the “Metabolic stability” value in data set [2] is recorded as 0.016 mL/min/mg protein. The results for the Ki in data set [3] and in data set [4] were 0.84 nM and 1860 nM, respectively. Besides, in data set [1], the Emax at 10 µM was found to be 61%.

Take `O=C1c2ncccc2CCN1CCN1CCN(c2noc3cc(Cl)ccc23)CC1` [Example 124]: in data set [4], the Ki is > 10000 nM.

In the case of `O=C1c2oc(C3CC3)nc2CCC1CCN1CCN(c2nsc3ccccc23)CC1` (stereo not drawn) [Example 67], in data set [2], the “Metabolic stability” value was 0.269 mL/min/mg protein. The Ki in data set [3] was 1.17 nM. Also, the Emax at 10 µM in data set [1] is 65%.

In turn, `COc1ccc2c(N3CCN(CCN4CCc5cccnc5C4=O)CC3)noc2c1` [Example 149] displayed a Ki in data set [3] of 184 nM. Further, in data set [5], the Ki was found to be 217 nM. Besides, in data set [4], the Ki was > 10000 nM, the “D2 Ki/5-HT1A Ki” value was >54.3 and the “D2 Ki/5-HT2A Ki” value was >46.1. The Emax at 10 µM in data set [1] came out at 16%.

As for `O=c1c2ncccc2ccn1CCN1CCN(c2nsc3cc(F)ccc23)CC1` [Example 12], the “Metabolic stability” value in data set [2] is listed as 0.02 mL/min/mg protein. In addition, the affinity in data set [3] corresponds to a Ki of 7.03 nM. Also, in data set [4], affinity was put at a Ki of 311 nM, the “D2 Ki/5-HT1A Ki” value was 44 and the “D2 Ki/5-HT2A Ki” value stood at 111. The Emax at 10 µM in data set [1] stood at 32%.

Consider `Cn1ncc2c1CCCC(CCN1CCN(c3noc4ccccc34)CC1)C2=O` (stereo not drawn) [Example 30], for which, in data set [2], the “Metabolic stability” value stood at 0.065 mL/min/mg protein. Further, in data set [5], affinity was put at a Ki of 0.76 nM. In addition, the IC50 in data set [6] (setting [8]) worked out at 900 nM. Moreover, the Emax at 10 µM in data set [1] was 42%.

`Cn1nc(Br)c2c1CCN(CCN1CCN(c3nsc4ccccc34)CC1)C2=O` [Example 69] registered an EC50 in data set [1] (concentration at which half the activity of Emax was obtained) of 33.9 nM.

For the compound `Cc1noc2c1C(=O)N(CCN1CCN(c3noc4ccccc34)CC1)CCC2` [Example 38], in data set [2], the “Metabolic stability” value is recorded as 0.136 mL/min/mg protein. The figures for the Ki in data set [3] and in data set [5] were 13.5 nM and 4.44 nM, respectively. In addition, in data set [6] (setting [8]), the IC50 stood at 500 nM. In data set [1], the Emax at 10 µM worked out at 56%.

Turning to `O=C1c2cnccc2CCN1CCN1CCC(c2noc3ccccc23)CC1` [Example 13], the “Metabolic stability” value in data set [2] is on record as <0.01 mL/min/mg protein. In addition, the IC50 turned out to be 1100 nM in data set [6] (hERG-CHO cells) and 71 nM in data set [7].

In the case of `Cc1cc2c(o1)C(=O)N(CCN1CCN(c3nsc4ccccc34)CC1)CC2` [Example 45], the “Metabolic stability” value in data set [2] is on record as 0.032 mL/min/mg protein. The compound also had a Ki in data set [5] of 3.1 nM. The IC50 in data set [6] (setting [8]) was determined as 7000 nM. The Emax at 10 µM in data set [1] was 65%.

In the case of `CC1CC(CCN2CCC(c3noc4ccccc34)CC2)C(=O)c2ccn(C)c21` (stereo not drawn) [Example 82], in data set [2], the “Metabolic stability” value worked out at 0.072 mL/min/mg protein. The Ki stood at 0.61 nM in data set [3] and 0.87 nM in data set [5]. Also, the Emax at 10 µM in data set [1] was found to be 61%.

Regarding `COc1ccc2c(n1)C(=O)N(CCN1CCC(c3noc4ccccc34)CC1)CC2` [Example 187], the “Metabolic stability” value in data set [2] is <0.05 mL/min/mg protein.
